Laboratory results published in the supplement of paper PMC10307832.

Tests used:
Assay in all cases: relative viability (nuclei count vs DMSO), 5 days (fraction); higher = more cells survive
[1] = compound: COc1cc2nccc(Oc3ccc(NC(=O)C4(C(=O)Nc5ccc(F)cc5)CC4)cc3)c2cc1OC [Cabozantinib] + CCNC(=O)c1noc(-c2cc(C(C)C)c(O)cc2O)c1-c1ccc(CN2CCOCC2)cc1 [Luminespib] (partner 0.01 µM)
In short: (§1)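 Values are medians from duplicate plates. Each reflects relative viability, defined as the nuclei count of treated wells over that of vehicle wells. Lung cancer cell lines in 1536-well plates were pin-tool dosed one day after seeding with one drug alone or with a fixed anchor-drug dose plus five library-drug doses (not always all listed) in √10 steps, then fixed, stained and imaged at 4× after 5 days.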

[2] = compound: C1=CC(=CC=C1NC(=S)NNC2=C(C=C(C=C2[N+](=O)[O-])C(F)(F)F)[N+](=O)[O-])F [Kobe2602] + Cc1cc(Nc2cc(N3CCN(C)CC3)nc(Sc3ccc(NC(=O)C4CC4)cc3)n2)n[nH]1 [Tozasertib] (partner 0.1 µM)
In short: as §1

[3] = compound: O[C@@H](COc1cccc2ncccc12)CN1CCN([C@@H]2c3ccccc3[C@@H]3[C@H](c4ccccc42)C3(F)F)CC1 [Zosuquidar] + NC(=O)Nc1cc(-c2cccc(F)c2)sc1C(=O)N[C@H]1CCCNC1 [AZD7762] (partner 0.2 µM)
In short: as §1

[4] = compound: COc1cc2nccc(Oc3ccc(NC(=O)C4(C(=O)Nc5ccc(F)cc5)CC4)cc3)c2cc1OC [Cabozantinib] + Cc1cc(Nc2cc(N3CCN(C)CC3)nc(Sc3ccc(NC(=O)C4CC4)cc3)n2)n[nH]1 [Tozasertib] (partner 0.1 µM)
In short: as §1

Cell Line | relative viability ([1]; first compound 0.02 µM) | relative viability ([1]; first compound 0.06325 µM) | relative viability ([1]; first compound 0.2 µM) | relative viability ([1]; first compound 0.6325 µM) | relative viability ([1]; first compound 2 µM) | relative viability ([2]; first compound 0.2 µM) | relative viability ([2]; first compound 0.6325 µM) | relative viability ([2]; first compound 2 µM) | relative viability ([2]; first compound 6.325 µM) | relative viability ([2]; first compound 20 µM) | relative viability ([3]; first compound 0.01 µM) | relative viability ([3]; first compound 0.03162 µM) | relative viability ([3]; first compound 0.1 µM) | relative viability ([3]; first compound 0.3162 µM) | relative viability ([3]; first compound 1 µM) | relative viability ([4]; first compound 0.02 µM) | relative viability ([4]; first compound 0.06325 µM) | relative viability ([4]; first compound 0.2 µM) | relative viability ([4]; first compound 0.6325 µM) | relative viability ([4]; first compound 2 µM)
NCI-H1437 | 1.14 | 1.14 | 1.13 | 1.09 | 1 | 0.429 | 0.403 | 0.412 | 0.322 | 0.439 | 1.19 | 1.16 | 1.14 | 1.03 | 1.19 | 0.413 | 0.454 | 0.411 | 0.428 | 0.347
EKVX | 0.859 | 1.02 | 0.918 | 0.751 | 0.893 | 0.391 | 0.284 | 0.362 | 0.365 | 0.278 | 0.747 | 0.77 |  | 0.752 | 0.659 | 0.422 | 0.481 | 0.364 | 0.394 | 0.314
NCI-H596 | 0.905 | 1.26 | 1.02 | 1.08 | 0.907 | 0.763 | 0.763 | 0.813 | 0.798 | 0.746 | 0.974 | 1.14 | 0.958 | 1.25 | 1.28 | 0.95 | 0.8 | 0.924 | 0.905 | 0.767
NCI-H1993 | 0.787 | 0.738 | 0.667 | 0.828 | 0.73 | 0.515 | 0.549 | 0.573 | 0.53 | 0.56 | 0.692 | 0.781 |  | 0.858 | 0.908 | 0.546 | 0.625 | 0.565 | 0.572 | 0.542
HCC-78 |  |  |  |  |  | 0.428 | 0.413 | 0.369 | 0.314 | 0.525 | 0.685 |  |  | 0.72 | 0.524 |  | 0.414 | 0.445 | 0.367 | 0.311
NCI-H2087 | 0.163 | 0.185 | 0.193 | 0.168 | 0.158 | 0.282 | 0.247 | 0.251 | 0.243 | 0.246 | 1.22 | 1.39 | 1.32 | 1.41 | 1.26 | 0.271 | 0.24 | 0.225 | 0.248 | 0.204
H3255 | 0.885 | 1.13 |  | 0.905 | 0.893 | 0.628 | 0.612 | 0.488 | 0.55 | 0.607 | 1.03 | 0.832 | 0.766 | 0.95 | 0.795 | 0.605 | 1.34 |  | 0.471 | 0.775
NCI-H2126 | 0.871 | 0.973 | 0.969 | 0.89 | 1.1 | 0.856 | 0.821 | 0.812 | 0.733 | 0.591 | 1.03 | 1 | 0.911 | 1.04 | 1.01 | 0.865 | 0.937 | 0.816 | 0.814 | 0.848
LC-2-ad |  | 1.1 | 1.03 | 0.914 | 0.956 | 0.478 | 0.534 | 0.489 | 0.453 | 0.472 | 0.78 | 0.855 | 0.883 | 0.842 | 0.787 |  | 0.454 | 0.46 | 0.456 | 0.392
SW 1573 | 0.22 | 0.223 | 0.221 | 0.151 | 0.122 | 0.194 | 0.163 | 0.179 | 0.271 | 0.183 |  |  |  |  |  | 0.149 | 0.146 | 0.18 | 0.148 | 0.177
HCC-15 | 0.374 | 0.361 | 0.515 | 0.394 | 0.214 | 0.351 | 0.377 | 0.299 | 0.425 | 0.431 | 1.11 | 1.27 | 1.17 | 1.18 | 1.16 | 0.462 | 0.432 | 0.437 | 0.44 | 0.267
NCI-H1650 | 0.187 | 0.202 | 0.185 | 0.185 | 0.169 | 0.409 | 0.337 | 0.319 | 0.24 | 0.271 |  |  |  |  |  | 0.384 | 0.612 | 0.356 | 0.34 | 0.244
COR-L 105 | 0.924 | 0.823 |  | 0.915 | 0.609 | 0.364 | 0.322 | 0.371 | 0.401 | 0.366 |  |  |  |  |  | 0.397 | 0.457 |  | 0.361 | 0.342
NCI-H650 |  | 0.784 | 0.952 | 0.751 | 0.724 | 0.738 | 0.757 | 0.746 | 0.789 | 0.623 | 0.944 | 0.801 | 0.897 | 1.31 | 0.898 |  | 0.746 | 0.756 | 0.789 | 0.706
LXF-289 | 0.683 | 0.764 | 0.689 | 0.715 | 0.662 | 0.192 | 0.191 | 0.181 | 0.203 | 0.185 | 1.13 | 1.18 | 1.07 | 1.12 | 1.14 | 0.206 | 0.198 | 0.171 | 0.218 | 0.208
NCI-H1703 |  |  |  |  |  |  |  |  |  |  | 0.0988 | 0.125 |  | 0.136 | 0.125 |  |  |  |  | 
SK-MES-1 | 0.835 | 1 | 0.9 | 0.875 | 0.729 | 0.822 | 0.878 | 0.791 | 0.737 | 0.55 |  |  |  |  |  | 1.09 | 0.991 | 0.999 | 0.927 | 0.753
NCI-H522 | 1.15 | 1.41 | 1.56 | 1.07 | 1.23 | 0.68 | 0.644 | 0.552 | 0.592 | 0.568 | 0.993 | 0.928 | 1.05 | 0.807 | 0.984 | 0.612 | 0.535 | 0.502 | 0.614 | 0.511
